In PubChem BioAssay (NCI):
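Growth conditions: 96-well plates. Treatment: test compound, 48 hours, 5 concentrations. Analysis: linear interpolation between bracketing concentrations; unreached endpoints set to highest concentration. Definition used: TGI = concentration required for complete inhibition of growth.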

Assays:
Assay in all cases: growth of human tumour cells (NCI), 48 h
[1] = tested on: U251 CNS
[2] = tested on: MCF7 breast
[3] = tested on: KM12 colon
[4] = tested on: OVCAR-5 ovarian
[5] = tested on: BT-549 breast
[6] = tested on: SW-620 colon
[7] = tested on: UACC-62 melanoma
[8] = tested on: SNB-19 CNS
[9] = tested on: SK-MEL-2 melanoma
[10] = tested on: SN12C renal
[11] = tested on: OVCAR-4 ovarian
[12] = tested on: NCI-H23 lung

SMILES | TGI [1] | TGI [2] | TGI [3] | TGI [4] | TGI [5] | TGI [6] | TGI [7] | TGI [8] | TGI [9] | TGI [10] | TGI [11] | TGI [12]
COC(=O)/C=C/c1cc(OC)c2oc(-c3ccc(OC)c(OC)c3)c(C(=O)OC)c2c1 | > 100 µM | > 100 µM | > 100 µM | > 100 µM | > 100 µM | > 100 µM | > 100 µM | > 100 µM | > 100 µM | > 100 µM | > 100 µM | > 100 µM
Cc1cc(O)ccc1C1(c2ccc(F)cc2)OC(=O)c2ccccc21 (stereo not drawn) | > 49.9 µM | 4.38 µM | 7.3 µM | 20.1 µM | 0.653 µM | 25.5 µM | 16.9 µM | 15.4 µM | 17.4 µM | 8.23 µM | 1.08 µM | 3.27 µM
CCOC(=O)c1c(NCc2ccccc2)n(-c2ccccc2)c(=S)n(-c2ccccc2)c1=O | > 100 µM | > 100 µM | > 100 µM | > 100 µM | > 100 µM | > 100 µM | > 100 µM | > 100 µM | > 100 µM | > 100 µM | > 100 µM | > 100 µM
c1csc(-c2csc(-c3ccsc3)c2)c1 | > 100 µM | > 71.4 µM | > 100 µM | > 100 µM | > 100 µM | > 100 µM | > 100 µM | > 100 µM | > 100 µM | > 100 µM | > 100 µM | > 100 µM
Cc1nn(C)c2nc3ccc(Cl)cc3c(-c3ccccc3)c12 | > 100 µM | > 100 µM | > 100 µM | > 100 µM | > 100 µM | > 100 µM | > 100 µM | > 100 µM | > 100 µM | > 100 µM | > 100 µM | > 100 µM
N#CC12C(=O)N3C(=NC(c4ccccc4)NC3c3ccccc3)C1(C#N)C(c1ccccc1)NC1=C2CCCC1 (stereo not drawn) | > 100 µM | > 100 µM | > 100 µM | > 100 µM | > 100 µM | > 100 µM | > 100 µM | > 100 µM | > 100 µM | > 100 µM | > 100 µM | > 100 µM
Cc1cc(C)c2c(=N)c3ccccc3n(CCCCCCO)c2n1 | 13.8 µM | 8.56 µM | 13.5 µM | 21.2 µM | 23.7 µM | > 36.1 µM | 8.89 µM | 18.9 µM | 9.47 µM | 7.55 µM | 9.85 µM | 6.69 µM
S=C(N/N=C\c1ccccn1)N(Cc1ccccn1)Cc1ccccn1 | > 40 µM | > 100 µM | 23.5 µM | 63.9 µM | 12.9 µM | > 51.3 µM | > 23.1 µM | 21.9 µM | 37.9 µM | 25.7 µM | 18.7 µM | 14.5 µM
N#Cc1c(Nc2nc3ccccc3s2)c2ccccc2n2c1nc1ccccc12 | > 100 µM | > 100 µM | > 100 µM | > 100 µM | > 100 µM | > 100 µM | > 100 µM | > 100 µM | > 100 µM | > 100 µM | > 100 µM | > 100 µM
O=C1c2ccccc2-c2nc(-c3ccccc3)cc3c2c1nc1ccccc13 | 39.6 µM | 21.9 µM | 50.3 µM | 61.4 µM | 42.9 µM | 36.6 µM | 9.7 µM | 52.9 µM | 51.4 µM | 32.8 µM | > 100 µM | 16.1 µM
CCn1c2ccc(O)c(C(=O)OC)c2c2cc3ccccc3c(O)c21 | 69.2 µM | > 100 µM | 33.6 µM | 73.3 µM | 50.7 µM |  | > 100 µM | > 100 µM | 36.6 µM | 41.6 µM | 75.1 µM | 52.4 µM
Cc1ccc(S(=O)(=O)c2ccc([N+](=O)[O-])o2)cc1 | 17.7 µM | 7.13 µM |  | 4.77 µM | 6.16 µM | 1.73 µM | 6.17 µM | 40.4 µM | 28.7 µM | 35.5 µM | > 22 µM | 13 µM
C=CC(C)(C)c1cc([C@@H]2COc3cc(O)ccc3C2=O)c(O)c(O)c1OC | 40.6 µM | 32.5 µM | 40.7 µM | > 100 µM | 32.7 µM | > 100 µM | 34.4 µM | 49 µM | 45.8 µM | 37.6 µM | 34.2 µM | 34 µM
CCOC(=O)c1c(N2CCOCC2)[nH]c(=O)c(C(c2cccs2)c2c(O)c(C(=O)OCC)c(N3CCOCC3)[nH]c2=O)c1O | > 100 µM | > 100 µM | > 100 µM | > 100 µM | > 100 µM | > 100 µM | > 100 µM | > 100 µM | > 100 µM | > 100 µM | > 100 µM | > 100 µM
O=S(=O)(O)c1cc(O)c2c(O)c(N=Nc3cccc4ccccc34)c(S(=O)(=O)O)cc2c1 | > 100 µM | > 100 µM | > 100 µM | > 100 µM | > 100 µM | > 100 µM | > 100 µM | > 100 µM | > 100 µM | > 100 µM | > 100 µM | > 100 µM
CC(NNC(=O)c1ccncc1)c1ccc(Cl)c(Cl)c1 (stereo not drawn) | > 100 µM | > 100 µM | > 100 µM | > 100 µM | > 100 µM | > 100 µM | > 100 µM | > 100 µM | > 100 µM | > 100 µM | > 100 µM | > 100 µM
ONC1=Nc2ccccc2OCc2cc(Br)c(Br)cc2COc2ccccc2N=C1NO | 41.8 µM | > 44.7 µM | > 46 µM | 42.8 µM | 42.5 µM | > 48.3 µM | 35.7 µM | 24.2 µM | 38.7 µM | 27.3 µM | > 52.6 µM | 44.5 µM
CN(C)Cc1cc(C(=O)/C=C/c2cccc(Cl)c2)cc(CN(C)C)c1O | 12.3 µM | 23.3 µM | 19.7 µM | 19 µM | 25.8 µM | 17.5 µM | 22.3 µM | 69.9 µM | 26 µM | 11.4 µM |  | 37.9 µM
